Assay results taken from US7235679B2, “Crystals of a vitamin D derivative and a method for the preparation thereof” (Chugai Seiyaku Kabushiki Kaisha, priority 1996, dated 2007).

Columns and labels:
Type in all cases: physicochemical
[1] = Stability test of ED-71: purity measurement using reverse phase HPLC; conditions: for Purity Measurement Using Reverse Phase HPLC, ED-71 peak / Purity Measurement Using Reverse Phase HPLC, Other peaks / Purity Measurement Using Reverse Phase HPLC, Pre Form peak: 265 nm
Description: (§1) Amorphous and crystalline ED-71 compounds were tested for stability at 10, 25 and […]. To estimate the stability, HPLC quantitative assay and absorbance and purity measurements were utilized. The purity was expressed as peak area ratio in percentage in HPLC (% P.A.R.). The test was carried out by using the following procedures:
(§2) About 2 mg portions of each of the amorphous and crystalline samples are precisely weighed into transparent 10 ml test tubes each having screw cap, individually.
(§3) The test tubes are purged with argon using a vacuum desiccator and a glove box. This purging procedure is not applied to the test tubes indicated as “1 M (air)” in the tables below.
(§4) The test tubes in groups are fixed in thermostatic baths which are respectively controlled at the above temperatures and allowed to stand in the dark. After one (1 W) or two (2 W) weeks or one month (1 M), the test tubes are removed from the baths and subjected to the following assay and measurements:
HPLC is carried out using 25 μl of the sample solution as prepared in “HPLC quantitative assay” above. • HPLC conditions used: • Column: Inertsil ODS-2 (5×250 mm) • Mobile phase: acetonitrile/water mixture (55/45) • Flow rate: 1 ml/min • Detection: at UV 265 and 220 nm.

[2] = Stability test of ED-71: purity measurement using normal phase HPLC; conditions: 265 nm
Description: as §1, §2, §3, §4
1 ml of the sample solution as prepared in “HPLC quantitative assay” above is dried in vacuo to remove the solvent (absolute ethanol). The residue is dissolved in 1 ml of methylene chloride. HPLC assay is carried out using 25 μl of this solution. • HPLC conditions used: • Column: YMC A-004SIL (4.6×300 mm) • Mobile phase: methylene chloride/methanol mixture (96/4) • Flow rate: 1.8 ml/min • Detection: at UV 265 nm.

[3] = Stability test of ED-71: absorbance measurement at 265 nm (E 1%); conditions: absorbance at 265 nm
Description: as §1, §2, §3, §4
1 ml of the sample solution as prepared in “HPLC quantitative assay” above is diluted with absolute ethanol to give a whole volume of 10 ml and this diluted solution is then measured for the absorbance at 265 nm using a ultraviolet spectrophotometer. The absorbance is converted into E 1% value which is derived from Lambert-Beer Law and the conversion is made according to the following equation: E1%=A/cb wherein A is absorbance, c is concentration in g/100 ml and b is length of optical path in cm across the test solution, which is commonly 1. (4) Purity Measurement

What does the source list for C=C1/C(=C\C=C2/CCC[C@]3(C)[C@@H]([C@H](C)CCCC(C)(C)O)CC[C@@H]23)C[C@@H](O)[C@@H](OCCCO)[C@@H]1O [Crys., 1α,25-dihydroxy-2β-(3-hydroxypropoxy)vitamin D3]?
220 nm (%), ED-71 peak ([1]; 10° C., 1 M (air), dark): 97.09%; 220 nm (%), Other peaks ([1]; 10° C., 1 M (air), dark): 1.82%; 220 nm (%), Pre Form peak ([1]; 10° C., 1 M (air), dark): 1.09%; 220 nm (%), ED-71 peak ([1]; 10° C., 1 M, argon, dark): 97.44%; 220 nm (%), Other peaks ([1]; 10° C., 1 M, argon, dark): 1.51%; 220 nm (%), Pre Form peak ([1]; 10° C., 1 M, argon, dark): 1.05%; 220 nm (%), ED-71 peak ([1]; 10° C., 2 W, argon, dark): 97.91%; 220 nm (%), Other peaks ([1]; 10° C., 2 W, argon, dark): 1.09%; 220 nm (%), Pre Form peak ([1]; 10° C., 2 W, argon, dark): 1.01%; 220 nm (%), ED-71 peak ([1]; 10° C., time 0): 97.44%; 220 nm (%), Other peaks ([1]; 10° C., time 0): 2.04%; 220 nm (%), Pre Form peak ([1]; 10° C., time 0): 0.52%; 220 nm (%), ED-71 peak ([1]; 25° C., 1 W, argon, dark): 98.17%; 220 nm (%), Other peaks ([1]; 25° C., 1 W, argon, dark): 1.40%; 220 nm (%), Pre Form peak ([1]; 25° C., 1 W, argon, dark): 0.44%; 220 nm (%), ED-71 peak ([1]; 25° C., 2 W, argon, dark): 97.56%; 220 nm (%), Other peaks ([1]; 25° C., 2 W, argon, dark): 1.43%; 220 nm (%), Pre Form peak ([1]; 25° C., 2 W, argon, dark): 1.01%; 220 nm (%), ED-71 peak ([1]; 25° C., time 0): 97.44%; 220 nm (%), Other peaks ([1]; 25° C., time 0): 2.04%; 220 nm (%), Pre Form peak ([1]; 25° C., time 0): 0.52%; 220 nm (%), ED-71 peak ([1]; 40° C., 1 W, argon, dark): 98.18%; 220 nm (%), Other peaks ([1]; 40° C., 1 W, argon, dark): 1.35%; 220 nm (%), Pre Form peak ([1]; 40° C., 1 W, argon, dark): 0.47%; 220 nm (%), ED-71 peak ([1]; 40° C., 2 W, argon, dark): 97.65%; 220 nm (%), Other peaks ([1]; 40° C., 2 W, argon, dark): 1.33%; 220 nm (%), Pre Form peak ([1]; 40° C., 2 W, argon, dark): 1.02%; 220 nm (%), ED-71 peak ([1]; 40° C., time 0): 97.44%; 220 nm (%), Other peaks ([1]; 40° C., time 0): 2.04%; 220 nm (%), Pre Form peak ([1]; 40° C., time 0): 0.52%; Purity Measurement Using Reverse Phase HPLC, ED-71 peak ([1]; 10° C., 1 M (air), dark): 98.72 % P.A.R; Purity Measurement Using Reverse Phase HPLC, Other peaks ([1]; 10° C., 1 M (air), dark): 0.42 % P.A.R; Purity Measurement Using Reverse Phase HPLC, Pre Form peak ([1]; 10° C., 1 M (air), dark): 0.86 % P.A.R; Purity Measurement Using Reverse Phase HPLC, ED-71 peak ([1]; 10° C., 1 M, argon, dark): 98.77 % P.A.R; Purity Measurement Using Reverse Phase HPLC, Other peaks ([1]; 10° C., 1 M, argon, dark): 0.37 % P.A.R; Purity Measurement Using Reverse Phase HPLC, Pre Form peak ([1]; 10° C., 1 M, argon, dark): 0.86 % P.A.R; Purity Measurement Using Reverse Phase HPLC, ED-71 peak ([1]; 10° C., 2 W, argon, dark): 98.84 % P.A.R; Purity Measurement Using Reverse Phase HPLC, Other peaks ([1]; 10° C., 2 W, argon, dark): 0.32 % P.A.R; Purity Measurement Using Reverse Phase HPLC, Pre Form peak ([1]; 10° C., 2 W, argon, dark): 0.83 % P.A.R; Purity Measurement Using Reverse Phase HPLC, ED-71 peak ([1]; 10° C., time 0): 99.04 % P.A.R; Purity Measurement Using Reverse Phase HPLC, Other peaks ([1]; 10° C., time 0): 0.60 % P.A.R; Purity Measurement Using Reverse Phase HPLC, Pre Form peak ([1]; 10° C., time 0): 0.36 % P.A.R; Purity Measurement Using Reverse Phase HPLC, ED-71 peak ([1]; 25° C., 1 W, argon, dark): 99.35 % P.A.R; Purity Measurement Using Reverse Phase HPLC, Other peaks ([1]; 25° C., 1 W, argon, dark): 0.38 % P.A.R; Purity Measurement Using Reverse Phase HPLC, Pre Form peak ([1]; 25° C., 1 W, argon, dark): 0.28 % P.A.R; Purity Measurement Using Reverse Phase HPLC, ED-71 peak ([1]; 25° C., 2 W, argon, dark): 98.78 % P.A.R; Purity Measurement Using Reverse Phase HPLC, Other peaks ([1]; 25° C., 2 W, argon, dark): 0.37 % P.A.R; Purity Measurement Using Reverse Phase HPLC, Pre Form peak ([1]; 25° C., 2 W, argon, dark): 0.85 % P.A.R; Purity Measurement Using Reverse Phase HPLC, ED-71 peak ([1]; 25° C., time 0): 99.04 % P.A.R; Purity Measurement Using Reverse Phase HPLC, Other peaks ([1]; 25° C., time 0): 0.60 % P.A.R; Purity Measurement Using Reverse Phase HPLC, Pre Form peak ([1]; 25° C., time 0): 0.36 % P.A.R; Purity Measurement Using Reverse Phase HPLC, ED-71 peak ([1]; 40° C., 1 W, argon, dark): 99.40 % P.A.R; Purity Measurement Using Reverse Phase HPLC, Other peaks ([1]; 40° C., 1 W, argon, dark): 0.31 % P.A.R; Purity Measurement Using Reverse Phase HPLC, Pre Form peak ([1]; 40° C., 1 W, argon, dark): 0.29 % P.A.R; Purity Measurement Using Reverse Phase HPLC, ED-71 peak ([1]; 40° C., 2 W, argon, dark): 98.75 % P.A.R; Purity Measurement Using Reverse Phase HPLC, Other peaks ([1]; 40° C., 2 W, argon, dark): 0.40 % P.A.R; Purity Measurement Using Reverse Phase HPLC, Pre Form peak ([1]; 40° C., 2 W, argon, dark): 0.85 % P.A.R; Purity Measurement Using Reverse Phase HPLC, ED-71 peak ([1]; 40° C., time 0): 99.04 % P.A.R; Purity Measurement Using Reverse Phase HPLC, Other peaks ([1]; 40° C., time 0): 0.60 % P.A.R; Purity Measurement Using Reverse Phase HPLC, Pre Form peak ([1]; 40° C., time 0): 0.36 % P.A.R; Purity Measurement Using Normal Phase HPLC, ED-71 peak ([2]; 10° C., 1 M (air), dark): 98.88 % P.A.R; Purity Measurement Using Normal Phase HPLC, Other peaks ([2]; 10° C., 1 M (air), dark): 0.46 % P.A.R; Purity Measurement Using Normal Phase HPLC, Pre Form peak ([2]; 10° C., 1 M (air), dark): 0.66 % P.A.R; Purity Measurement Using Normal Phase HPLC, ED-71 peak ([2]; 10° C., 1 M, argon, dark): 98.91 % P.A.R; Purity Measurement Using Normal Phase HPLC, Other peaks ([2]; 10° C., 1 M, argon, dark): 0.44 % P.A.R; Purity Measurement Using Normal Phase HPLC, Pre Form peak ([2]; 10° C., 1 M, argon, dark): 0.65 % P.A.R; Purity Measurement Using Normal Phase HPLC, ED-71 peak ([2]; 10° C., 2 W, argon, dark): 99.06 % P.A.R; Purity Measurement Using Normal Phase HPLC, Other peaks ([2]; 10° C., 2 W, argon, dark): 0.27 % P.A.R; Purity Measurement Using Normal Phase HPLC, Pre Form peak ([2]; 10° C., 2 W, argon, dark): 0.66 % P.A.R; Purity Measurement Using Normal Phase HPLC, ED-71 peak ([2]; 10° C., time 0): 99.15 % P.A.R; Purity Measurement Using Normal Phase HPLC, Other peaks ([2]; 10° C., time 0): 0.63 % P.A.R; Purity Measurement Using Normal Phase HPLC, Pre Form peak ([2]; 10° C., time 0): 0.21 % P.A.R; Purity Measurement Using Normal Phase HPLC, ED-71 peak ([2]; 25° C., 1 W, argon, dark): 99.56 % P.A.R; Purity Measurement Using Normal Phase HPLC, Other peaks ([2]; 25° C., 1 W, argon, dark): 0.30 % P.A.R; Purity Measurement Using Normal Phase HPLC, Pre Form peak ([2]; 25° C., 1 W, argon, dark): 0.14 % P.A.R; Purity Measurement Using Normal Phase HPLC, ED-71 peak ([2]; 25° C., 2 W, argon, dark): 98.95 % P.A.R; Purity Measurement Using Normal Phase HPLC, Other peaks ([2]; 25° C., 2 W, argon, dark): 0.38 % P.A.R; Purity Measurement Using Normal Phase HPLC, Pre Form peak ([2]; 25° C., 2 W, argon, dark): 0.67 % P.A.R; Purity Measurement Using Normal Phase HPLC, ED-71 peak ([2]; 25° C., time 0): 99.15 % P.A.R; Purity Measurement Using Normal Phase HPLC, Other peaks ([2]; 25° C., time 0): 0.63 % P.A.R; Purity Measurement Using Normal Phase HPLC, Pre Form peak ([2]; 25° C., time 0): 0.21 % P.A.R; Purity Measurement Using Normal Phase HPLC, ED-71 peak ([2]; 40° C., 1 W, argon, dark): 99.55 % P.A.R; Purity Measurement Using Normal Phase HPLC, Other peaks ([2]; 40° C., 1 W, argon, dark): 0.31 % P.A.R; Purity Measurement Using Normal Phase HPLC, Pre Form peak ([2]; 40° C., 1 W, argon, dark): 0.14 % P.A.R; Purity Measurement Using Normal Phase HPLC, ED-71 peak ([2]; 40° C., 2 W, argon, dark): 98.92 % P.A.R; Purity Measurement Using Normal Phase HPLC, Other peaks ([2]; 40° C., 2 W, argon, dark): 0.41 % P.A.R; Purity Measurement Using Normal Phase HPLC, Pre Form peak ([2]; 40° C., 2 W, argon, dark): 0.67 % P.A.R; Purity Measurement Using Normal Phase HPLC, ED-71 peak ([2]; 40° C., time 0): 99.15 % P.A.R; Purity Measurement Using Normal Phase HPLC, Other peaks ([2]; 40° C., time 0): 0.63 % P.A.R; Purity Measurement Using Normal Phase HPLC, Pre Form peak ([2]; 40° C., time 0): 0.21 % P.A.R; E 1% ([3]; 10° C., 1 M (air), dark): 341.7; E 1% ([3]; 10° C., 1 M, argon, dark): 342.7; E 1% ([3]; 10° C., 2 W, argon, dark): 343.8; E 1% ([3]; 10° C., time 0): 359.2; E 1% ([3]; 25° C., 1 W, argon, dark): 349.5; E 1% ([3]; 25° C., 2 W, argon, dark): 341.6; E 1% ([3]; 25° C., time 0): 359.2; E 1% ([3]; 40° C., 1 W, argon, dark): 349.8; E 1% ([3]; 40° C., 2 W, argon, dark): 348.7; E 1% ([3]; 40° C., time 0): 359.2
